Structures are written as SMILES.

The target of this experiment is T1, human p38 kinase alpha (Homo sapiens, UniProt Q16539).
T1 construct: GST (N, cleaved yes); made in house; host or cells: E. coli DH10B
T1 sequence (Q16539 whole entry): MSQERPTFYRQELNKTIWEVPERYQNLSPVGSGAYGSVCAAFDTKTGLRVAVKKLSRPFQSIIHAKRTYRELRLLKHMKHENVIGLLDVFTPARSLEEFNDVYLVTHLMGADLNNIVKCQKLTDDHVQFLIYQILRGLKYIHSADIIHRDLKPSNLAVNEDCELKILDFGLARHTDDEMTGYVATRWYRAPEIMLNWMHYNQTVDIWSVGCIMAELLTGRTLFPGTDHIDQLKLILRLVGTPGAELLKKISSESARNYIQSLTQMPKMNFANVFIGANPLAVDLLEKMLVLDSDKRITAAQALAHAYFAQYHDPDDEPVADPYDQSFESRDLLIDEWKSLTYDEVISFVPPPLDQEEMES
Nature of the experiment: p38 kinase in vitro assay, phosphorylation of biotinylated PHAS-I with 32P-ATP. Format: biochemical. The settings on record: in vitro P38-alpha kinase inhibition; read-out: P38 alpha kinase IC50.
By IC50 is commonly meant the concentration that inhibits the measured activity by half. As to `O=S(=O)(NC(Cc1ccccc1)c1[nH]nc(-c2ccc(F)cc2)c1-c1ccncc1)c1ccc(F)cc1` (centres unmarked) [Example B-0752], the 50% inhibitory concentration (IC50) came out at 0.33 µM.
For `O=S(=O)(NC(Cc1ccccc1)c1[nH]nc(-c2ccc(F)cc2)c1-c1ccncc1)c1ccccc1` (centres unmarked) [Example B-0753] the value was 0.37 µM.
For `CC(C)S(=O)(=O)NC(Cc1ccccc1)c1[nH]nc(-c2ccc(F)cc2)c1-c1ccncc1` (centres unmarked) [Example B-0754] the value was 0.55 µM.
In the case of `O=S(=O)(C=Cc1ccccc1)NC(Cc1ccccc1)c1[nH]nc(-c2ccc(F)cc2)c1-c1ccncc1` (centres unmarked) [Example B-0755], the IC50 was found to be 2.3 µM.
The value for `O=S(=O)(Cc1ccccc1)NC(Cc1ccccc1)c1[nH]nc(-c2ccc(F)cc2)c1-c1ccncc1` (centres unmarked) [Example B-0756] was 0.94 µM; that for `O=S(=O)(NC(Cc1ccccc1)c1[nH]nc(-c2ccc(F)cc2)c1-c1ccncc1)c1ccc(F)cc1F` (centres unmarked) [Example B-0757] was 0.54 µM.
For `O=S(=O)(NC(Cc1ccccc1)c1[nH]nc(-c2ccc(F)cc2)c1-c1ccncc1)C(F)(F)F` (centres unmarked) [Example B-0758] the value was 1.5 µM; for `O=S(=O)(NC(Cc1ccccc1)c1[nH]nc(-c2ccc(F)cc2)c1-c1ccncc1)c1ccccc1F` (centres unmarked) [Example B-0759], 0.3 µM; for `CCCCS(=O)(=O)NC(Cc1ccccc1)c1[nH]nc(-c2ccc(F)cc2)c1-c1ccncc1` (centres unmarked) [Example B-0761], under 0.1 µM.
The value for `COc1ccc(S(=O)(=O)NC(Cc2ccccc2)c2[nH]nc(-c3ccc(F)cc3)c2-c2ccncc2)cc1` (centres unmarked) [Example B-0764] was 0.67 µM; that for `Cc1ccc(S(=O)(=O)NC(Cc2ccccc2)c2[nH]nc(-c3ccc(F)cc3)c2-c2ccncc2)cc1` (centres unmarked) [Example B-0766] was 0.95 µM; that for `COc1ccc(S(=O)(=O)NC(Cc2ccccc2)c2[nH]nc(-c3ccc(F)cc3)c2-c2ccncc2)cc1OC` (centres unmarked) [Example B-0767] was 0.08 µM.
Consider `O=C(NCc1ccccc1)NC(Cc1ccccc1)c1[nH]nc(-c2ccc(F)cc2)c1-c1ccncc1` (centres unmarked) [Example B-0770], for which the half-maximal inhibitory concentration (IC50) amounted to 2.3 µM.
For `O=C(NC(Cc1ccccc1)c1[nH]nc(-c2ccc(F)cc2)c1-c1ccncc1)N1CCCC1` (centres unmarked) [Example B-0771] the value was 0.5 µM; for `O=C(NC(Cc1ccccc1)c1[nH]nc(-c2ccc(F)cc2)c1-c1ccncc1)N1CCOCC1` (centres unmarked) [Example B-0772], 0.8 µM.
The value for `O=C(Nc1ccc(F)cc1)NC(Cc1ccccc1)c1[nH]nc(-c2ccc(F)cc2)c1-c1ccncc1` (centres unmarked) [Example B-0773] was 14 µM; that for `CN(C)C(=O)NC(Cc1ccccc1)c1[nH]nc(-c2ccc(F)cc2)c1-c1ccncc1` (centres unmarked) [Example B-0774] was 1.5 µM; that for `Cc1cccc(C)c1NC(=O)NC(Cc1ccccc1)c1[nH]nc(-c2ccc(F)cc2)c1-c1ccncc1` (centres unmarked) [Example B-0778] was 51 µM.
The value for `C=CCNC(=O)NC(Cc1ccccc1)c1[nH]nc(-c2ccc(F)cc2)c1-c1ccncc1` (centres unmarked) [Example B-0779] was 0.5 µM.
With `CCCNC(=O)NC(Cc1ccccc1)c1[nH]nc(-c2ccc(F)cc2)c1-c1ccncc1` (centres unmarked) [Example B-0780], the IC50 is 1.1 µM.
The value for `CC(NC(=O)NC(Cc1ccccc1)c1[nH]nc(-c2ccc(F)cc2)c1-c1ccncc1)c1ccccc1` (centres unmarked) [Example B-0781] was 48 µM; that for `O=C(Nc1ccccc1)NC(Cc1ccccc1)c1[nH]nc(-c2ccc(F)cc2)c1-c1ccncc1` (centres unmarked) [Example B-0782] was 22 µM.
For `O=C(NCCc1ccccc1)NC(Cc1ccccc1)c1[nH]nc(-c2ccc(F)cc2)c1-c1ccncc1` (centres unmarked) [Example B-0783] the value was 8 µM; for `CC(NC(=O)NC(Cc1ccccc1)c1[nH]nc(-c2ccc(F)cc2)c1-c1ccncc1)c1ccccc1` (centres unmarked) [Example B-0784], 7 µM; for `O=C(Nc1cccc(F)c1)NC(Cc1ccccc1)c1[nH]nc(-c2ccc(F)cc2)c1-c1ccncc1` (centres unmarked) [Example B-0785], 23 µM.
For `COc1ccc(NC(=O)NC(Cc2ccccc2)c2[nH]nc(-c3ccc(F)cc3)c2-c2ccncc2)cc1` (centres unmarked) [Example B-0786] the value was 24 µM.
